Several values for one entry are separate records, joined by “and”; a condition that tells them apart may be missing. Equal values may be shown once.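 The compound was tested at five concentrations on cells cultured in 96-well plates, with a 48-hour exposure period. Abbreviation: GI50, concentration required for 50% inhibition of growth. At the TGI there is no net growth.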
Tests used:
Experiment in all cases: NCI-60 cell line screen, 48 h
COLO 205 colon = tested on: COLO 205 colon
MDA-MB-231 breast = tested on: MDA-MB-231 breast
UO-31 renal = tested on: UO-31 renal
SR leukemia = tested on: SR leukemia
OVCAR-8 ovarian = tested on: OVCAR-8 ovarian
EKVX NSCLC = tested on: EKVX NSCLC
OVCAR-3 ovarian = tested on: OVCAR-3 ovarian
LOX IMVI melanoma = tested on: LOX IMVI melanoma
HT29 colon = tested on: HT29 colon
786-0 renal = tested on: 786-0 renal

Row | SMILES | GI50 (COLO 205 colon) [µM] | TGI (COLO 205 colon) [µM] | GI50 (MDA-MB-231 breast) | TGI (MDA-MB-231 breast) | GI50 (UO-31 renal) | TGI (UO-31 renal) [µM] | GI50 (SR leukemia) [µM] | TGI (SR leukemia) [µM] | GI50 (OVCAR-8 ovarian) [µM] | TGI (OVCAR-8 ovarian) [µM] | GI50 (EKVX NSCLC) [µM] | TGI (EKVX NSCLC) [µM] | GI50 (OVCAR-3 ovarian) | TGI (OVCAR-3 ovarian) | GI50 (LOX IMVI melanoma) [µM] | TGI (LOX IMVI melanoma) [µM] | GI50 (HT29 colon) [µM] | TGI (HT29 colon) [µM] | GI50 (786-0 renal) | TGI (786-0 renal)
1 | CC(=O)Nc1sc2c(c1-c1nc3ccccc3s1)CNC2 | 1.88 | 9.73 | 3.09 µM | 16.2 µM | 0.648 µM | 11.4 | 1.68 | 12.6 | 2.45 | > 50 | 2.59 | 21.9 | 3.85 µM | 24.4 µM | 1.67 | 6.74 | 3.76 | 19.4 | 2.61 µM | 9.6 µM
2 | COc1cc(OC)cc(-c2cncn2-c2ccc(-c3nc4cc(OC)c(OC)c(OC)c4s3)cc2)c1 | 3.85 | > 100 | 19.2 µM | > 100 µM | 1.94 µM | 58.9 | 7.14 | > 100 | 13.4 | > 100 | 1.87 | > 100 | 6.07 µM | 26.7 µM | 6.93 | > 100 | 8.33 | > 100 | 10.3 µM | > 100 µM
3 | O=C1c2ccccc2C(=O)c2c1ccc1c2OCO1 | – | > 100 | – | > 100 µM | – | > 100 | – | > 100 | – | > 100 | – | > 100 | – | > 100 µM | – | > 100 | – | > 100 | – | > 100 µM
4 | C/C(=N\NC(=O)c1ccncc1)c1ccc(O)cc1O | 3.8 | > 100 | 3.88 µM | > 100 µM | 2.82 µM | 20.5 | 4.16 | > 100 | 2.93 | > 100 | 2.56 | > 100 | 4.59 µM | > 100 µM | 3.46 | > 100 | 8.09 | > 100 | 5.84 µM | > 100 µM
5 | COc1ccc(-c2nocc2-c2cc(OC)c(OC)c(OC)c2)cc1 | 0.0531 | 1.24 | 0.35 µM | > 58.4 µM | 0.54 µM | 29 | 0.0497 | > 76.3 | 0.228 | > 100 | 0.121 | > 100 | 0.0364 µM | 0.474 µM | 0.212 | > 74.5 | 0.0379 | 4.76 | 0.109 µM | 31.6 µM
6 | Cc1nn(-c2ccc(Br)cc2)c(C)c1CC(=O)c1cc(O)ccc1O | 16.4 | > 50 | 5.35 µM | 15 µM | 15.9 µM | > 50 | 0.911 | > 50 | 8.09 | 23.2 | 21.3 | > 50 | 12.9 µM | 38.8 µM | 4.13 | 13.9 | 13.2 | 36.7 | 20.5 µM | > 50 µM
7 | O=[N+]([O-])c1ccc(-c2cn(-c3ccc(Cl)cc3)cn2)cc1 | – | > 100 | – | > 100 µM | – | > 100 | – | > 100 | – | > 100 | – | > 100 | – | 35.3 µM | – | > 100 | – | > 100 | – | 36.5 µM
8 | Cc1ccc(NC(=O)c2nc(S(C)=O)oc2-c2ccc(F)cc2)cc1Nc1nccc(-c2cccnc2)n1 (stereo not drawn) | 2.03 | 4.41 | 1.94 µM | 4.38 µM | 1.73 µM | 3.14 | 0.726 | 3.79 | 2.23 | 4.64 | 2.62 | 6.65 | 1.87 µM | 3.39 µM | 1.22 | 2.65 | 1.82 | 3.53 | 2 µM | 3.55 µM
9 | C=C1N(C)c2ccc(Cl)cc2C1(C)C | 2.1 | 4.36 | 16.7 µM | 57.4 µM | 27.9 µM | > 100 | 2.74 | 8.94 | 9.67 | > 100 | 4.59 | > 100 | 4.95 µM | 38.2 µM | 6.98 | 55.5 | 3.24 | 18.6 | 16.9 µM | 96.1 µM
10 | O=C(Nc1ccc(Br)cc1F)c1cc(Br)ccc1O | 2.95 | 9.11 | 1.09 µM | 4.9 µM | 0.4 µM | 2.8 | 2.07 | 11.8 | 0.959 | 15.4 | 1.03 | 11.7 | 0.535 µM | 8.62 µM | 0.668 | 4.47 | 3.08 | 9.71 | 1.66 µM | 6.26 µM
11 | CCN(CC(COc1ccc2c(c1)[n+]([O-])nc(N)[n+]2[O-])OC(C)=O)C(C)=O (stereo not drawn) | – | > 100 | – | > 100 µM | – | > 100 | – | > 100 | – | > 100 | – | > 100 | – | > 100 µM | – | > 100 | – | > 100 | – | > 100 µM
12 | Nc1nc2c(c3cnccc13)C(c1cccc(Cl)c1)Cc1cnccc1-2 (stereo not drawn) | 0.296 | 0.872 | 0.763 µM | 11 µM | 0.841 µM | 14.8 | 0.293 | > 100 | 0.601 | 22.5 | 0.441 | 15.1 | 0.293 µM | 13.1 µM | 0.373 | 11.2 | 0.336 | 2.56 | 0.396 µM | 10.6 µM
13 | NC[C@@](O)(c1ccc(Cl)cc1)c1ccc(-c2cn[nH]c2)cc1 | 1.48 | 3.18 | 3.24 µM and 2.76 µM | 52.3 µM and > 10 µM | 0.583 µM and 0.747 µM | – | 1.16 | 4.64 | 1.63 | 3.43 | 0.556 | > 10 | 3.22 µM and 1.96 µM | > 25.6 µM and 4.44 µM | 1.59 | 3.04 | 1.98 | 7.26 | 0.341 µM and 0.473 µM | 10.6 µM and 2.2 µM
14 | COc1ccc(/C=C/C(=O)c2ccc(Nc3ccnc4cc(Cl)ccc34)cc2)cc1 | 70.2 | > 100 | 31.1 µM | > 100 µM | > 100 µM | > 100 | 2.24 | 10.1 | > 100 | > 100 | > 100 | > 100 | > 100 µM | > 100 µM | > 100 | > 100 | 4.2 | > 100 | > 100 µM | > 100 µM
15 | C[C@@]1(N2C(=O)OC[C@@H]2c2ccccc2)C(=O)N([C@H](CC(=O)N2CCC(N3CCCCC3)CC2)C(=O)NCc2cccc(C(F)(F)F)c2)[C@@H]1/C=C/c1ccccc1 | 1.8 | 3.58 | 2.07 µM | 4.03 µM | 1.79 µM | 3.52 | 1.94 | 4.7 | 2.77 | 7.24 | 1.56 | 3.69 | 1.85 µM | 3.91 µM | 1.81 | 3.5 | 2.31 | 5.7 | 1.81 µM | 3.41 µM
16 | O=C1c2cccnc2C(=O)c2c1c(C(=O)OCCN1CCOCC1)c1ccccn21 | 0.137 | 0.69 | 0.905 µM | 41.2 µM | < 0.01 µM | – | < 0.01 | 1.83 | < 0.0168 | 9.21 | 1.54 | 10.1 | 0.0671 µM | 1.11 µM | < 0.01 | 0.384 | 0.316 | 2.31 | 0.0108 µM | 2.22 µM
17 | C[C@]12CC[C@H]3[C@@H](C[C@@H]4N=C(c5ccc(O)cc5)S[C@@]45C[C@H](O)CC[C@]35C)[C@@H]1CC[C@@H]2O | 9.14 | > 100 | 6.98 µM | 32.8 µM | 2.48 µM | 20.4 | 1.37 | 33.8 | 40.9 | > 100 | 7.29 | > 100 | 8.67 µM | 83.7 µM | 2.67 | 14.6 | 3.13 | 20.4 | 0.423 µM | 2.39 µM
18 | CC(C)[C@@H]1CC[C@@H]2[C@@H]1[C@H](OC(=O)/C=C/c1ccccc1)[C@]1(C(C)C)C[C@@H](OC(=O)CO)[C@@]2(C)O1 | 6.12 | 12.8 | 5.38 µM | 10.4 µM | 0.011 µM | 0.0857 | 7.91 | 18.7 | 0.0259 | 9.86 | 4.34 | 8.8 | 6.69 µM | 11.9 µM | 5.36 | 10.2 | 6.92 | 14.4 | 4.55 µM | 9.23 µM
19 | Cc1ccc(S(=O)(=O)n2cc(-c3nnnn3-c3ccc(Cl)cc3)c(=O)c3ccccc32)cc1 | 93 | > 100 | > 100 µM | > 100 µM | 52.5 µM | > 100 | 40.9 | > 100 | > 100 | > 100 | > 100 | > 100 | > 100 µM | > 100 µM | > 100 | > 100 | 57.7 | > 100 | > 100 µM | > 100 µM
20 | O=C(CN1CCN(c2ccc(Cl)cc2)CC1)N1CCN(c2nnc(-c3ccccc3)c(-c3ccccc3)n2)CC1 | 3.47 | > 100 | > 100 µM | > 100 µM | 4.41 µM | > 100 | 2.73 | 15.7 | 52.4 | > 100 | 7.57 | > 100 | 8.38 µM | > 100 µM | 7.26 | > 100 | 2.43 | 19.5 | 5.64 µM | > 100 µM
21 | O=C1OC2C(O)C(=O)OC2C1O (stereo not drawn) | – | > 100 | – | > 100 µM | – | > 100 | – | > 100 | – | > 100 | – | > 100 | – | > 100 µM | – | > 100 | – | > 100 | – | > 100 µM
22 | CCCN1CCN(c2ccc3nc(-c4ccc5nc(-c6ccc(OCC)c(OCC)c6)[nH]c5c4)[nH]c3c2)CC1 | 0.164 | 1.4 | 1.21 µM | 2.81 µM | 1.58 µM | 3.32 | 0.263 | 0.896 | 0.451 | 2.16 | 1.4 | 7.72 | 0.258 µM | 0.622 µM | 0.198 | 0.461 | 0.294 | 1.66 | 0.986 µM | 2.33 µM
